# How the values were obtained:
# GH levels in the rat = experiment: Growth hormone (GH) levels in NEMBUTAL-anesthetized, stimulated rats (RIA); assay type: in vivo; conditions: mean ± SE
# Method: (§1) In this evaluation the procedures described by W. A. Murphy et al. Endocrinology 109:491-495 (1980), were employed.
# In growth hormone (GH) experiments, male rats (Charles Rivers) were anesthetized with NEMBUTAL® (5 mg per 100 g/BW) which also served to maintain stimulated plasma GH levels. Exactly 30 minutes after the rats were anesthetized, 0.5 mL of saline or the test peptide in saline was administered as a sc bolus. A 1 mL blood sample was drawn from the jugular vein 15 minutes after the injection. For examining blocking effects of the analog on somatostatin, the cyclic peptide was given 5 minutes prior to somatostatin. GH levels were determined using NIADDKD rat GH RIA components.
# [1] = test system: insulin levels in hepatic portal blood; experiment: Insulin levels in hepatic portal blood of fasted rats (RIA); assay type: in vivo, rat
# Method: as §1
# (§2) For measurement of effects on insulin and glucagon levels, rats were fasted 27-30 hours and anesthetized with NEMBUTAL® (5 mg per 100 g body wt). Exactly 21 minutes after NEMBUTAL® injection 0.5 mL of saline or saline containing test peptide was injected into the jugular vein over a 1 minute period. Five minutes later, 3.5 mL of blood were quickly drawn from the hepatic portal vein after rapid laparotomy. Blocking effects of analog on exogenous somatostatin were examined by simultaneous injection of both peptides. Plasma insulin levels were determined using matched insulin RIA kits purchased from Cambridge Nuclear, Billerica, MA. Plasma glucagon was determined using Unger 30K antibody and ^125 I-glucagon (Cambridge Nuclear) as the tracer.
# [2] = test system: glucagon levels in hepatic portal blood; experiment: Glucagon levels in hepatic portal blood of fasted rats (RIA); assay type: in vivo, rat
# Method: as §1, §2
compound,measurement,setting,value
C[C@H](N)C(=O)NCC(=O)N[C@H]1CSSC[C@@H](C(=O)O)NC(=O)[C@H](CO)NC(=O)[C@H]([C@@H](C)O)NC(=O)[C@H](Cc2ccccc2)NC(=O)[C@H]([C@@H](C)O)NC(=O)[C@H](CCCCN)NC(=O)[C@H](Cc2c[nH]c3ccccc23)NC(=O)[C@H](Cc2ccccc2)NC(=O)[C@H](Cc2ccccc2)NC(=O)[C@H](CC(N)=O)NC(=O)[C@H](CCCCN)NC1=O [Somatostatin],GH,"GH levels in the rat; Table I Experiment 1, fed rats, 0.2 μg/100 g body weight sc, blood 15 min after injection, saline 277 ± 40",146 ± 14 ng/mL
same,GH,"GH levels in the rat; Table I Experiment 1, fed rats, 0.6 μg/100 g body weight sc, blood 15 min after injection, saline 277 ± 40",78 ± 26 ng/mL
same,GH,"GH levels in the rat; Table I Experiment 2, fasted rats, 0.4 μg/100 g body weight, saline 403 ± 85",107 ± 13 ng/mL
same,Insulin (Mean ± SE),"[1]; Table III Experiment 1, fasted rats, 0.4 μg/100 g iv, portal blood 5 min later, saline 67 ± 11",57 ± 3 μU/mL
same,Insulin (Mean ± SE),"[1]; Table III Experiment 1, fasted rats, 2.0 μg/100 g iv, saline 67 ± 11",28 ± 11 μU/mL
same,Insulin (Mean ± SE),"[1]; Table III Experiment 1, second saline set, fasted rats, 1.0 μg/100 g iv, saline 46 ± 5",11 ± 2 μU/mL
same,Glucagon (Mean ± SE),"[2]; Table III Experiment 1, fasted rats, 0.4 μg/100 g iv, portal blood 5 min later, saline 80 ± 5",64 ± 3 pg/mL
same,Glucagon (Mean ± SE),"[2]; Table III Experiment 1, fasted rats, 2.0 μg/100 g iv, saline 80 ± 5",46 ± 4 pg/mL
same,Glucagon (Mean ± SE),"[2]; Table III Experiment 1, second saline set, fasted rats, 1.0 μg/100 g iv, saline 94 ± 9",78 ± 7 pg/mL
same,Glucagon (Mean ± SE),"[2]; Table III Experiment 2, fasted rats, 1.0 μg/100 g iv, saline 45 ± 3",18 ± 7 pg/mL

# Source: patent US4508711A, “Cyclic pentapeptide displaying somatostatin antagonism and method of treatment of mammals therewith” (American Cyanamid Company, priority 1984, dated 1985)
